Assay results: patent US20250288561A1, “NEZULCITINIB FOR DELIVERY BY NEBULIZED ORAL INHALATION” (THERAVANCE BIOPHARMA R&D IP, LLC, priority 2022, published 2025)

Legend:
[1] = test system: subjects infected with COVID; test: Phase 2 clinical study in subjects infected with COVID: efficacy; assay type: in vivo, human; conditions: for time to recovery, median: vs placebo 11; for 28-day all-cause mortality, HR / time to recovery, HR: vs placebo
Experimental: Compound 1 has been studied in a phase 2 clinical study in subjects infected with COVID.
Importantly, in a post-hoc analysis of subjects with baseline CRP (n=201), in subjects with CRP <150 mg/L (n=171), there was an improvement in those treated with compound 1 when compared to placebo in: • 28-day all-cause mortality (total number of deaths: 1 vs 9, HR: 0.097, p=0.009). • time to recovery (median: 10 vs. 11 days, HR: 1.48, p=0.02).
In subjects with CRP >150 mg/L (n=30), there was no difference in time to recovery or 28-day all-cause mortality between those treated with compound 1 or placebo.

[2] = Phase 2 clinical study in subjects infected with COVID: safety; assay type: in vivo, human
From the text: Compound 1 was well-tolerated. Adverse events and serious adverse events occurred in 34.0% and 9.7% of subjects treated with compound 1, and 41.2% and 15.7% of subjects treated with placebo, respectively. Adverse events of liver abnormalities or disease occurred in 9.7% and 7.8% of subjects treated with compound 1 and placebo, respectively. Serious infections and venous thromboembolism occurred in 1.0% and none of the subjects treated with compound 1, and 2.0% and 4.9% in subjects treated with placebo, respectively.

[3] = test system: IL-6 signaling; test: Inhibition of cytokine signaling; assay type: cell-based
[4] = test system: IFNγ signaling; test: Inhibition of cytokine signaling; assay type: cell-based
[5] = test system: IFNγ secretion; test: Mixed lymphocyte reaction assay; assay type: cell-based
From the text: The mixed lymphocyte reaction assay is an in-vitro assay that mimics transplant rejection.

SMILES: CCc1cc(O)ccc1-c1ccc2c(-c3nc4c([nH]3)CN(C(C)C)[C@H](C(=O)N3CC(N(C)C)C3)C4)n[nH]c2c1 [Compound 1, (S)-(3-(dimethylamino)azetidin-1-yl)(2-(6-(2-ethyl-4-hydroxyphenyl)-1H-indazol-3-yl)-5-isopropyl-4,5,6,7-tetrahydro-3H-imidazo[4,5-c]pyridin-6-yl)methanone]
- change from baseline at Day 7 in SaO2/FiO2 ratio, 8-point Clinical Status scale categories, proportion alive and respiratory failure-free at Day 28, vs placebo ([1]; ITT): no difference
- RFDs (respiratory failure-free days) from randomization through Day 28, median ([1]; ITT, vs placebo 21, p=0.61): 21 days
- time to recovery, median ([1]; all subjects): 10 days
- 28-day all-cause mortality, total number of deaths ([1]; all subjects, vs placebo 13): 6
- 28-day all-cause mortality, HR ([1]; all subjects, p=0.08): 0.42
- time to recovery, HR ([1]; all subjects, p=0.12): 1.27
- time to recovery, median ([1]; post-hoc, baseline CRP <150 mg/L): 10 days
- 28-day all-cause mortality, HR ([1]; post-hoc, baseline CRP <150 mg/L, p=0.009): 0.097
- time to recovery, HR ([1]; post-hoc, baseline CRP <150 mg/L, p=0.02): 1.48
- 28-day all-cause mortality, total number of deaths ([1]; post-hoc, subjects with baseline CRP <150 mg/L (n=171), vs placebo 9): 1
- time to recovery or 28-day all-cause mortality vs placebo ([1]; subjects with CRP >150 mg/L (n=30)): no difference
- tolerability [2]: well-tolerated
- serious infections, subjects ([2]; placebo 2.0%): 1.0%
- venous thromboembolism, subjects ([2]; placebo 4.9%): none
- adverse events of liver abnormalities or disease, subjects ([2]; placebo 7.8%): 9.7%
- serious adverse events, subjects ([2]; placebo 15.7%): 9.7%
- adverse events, subjects ([2]; placebo 41.2%): 34.0%
- inhibition of IL-6 signaling [3]: shown to inhibit
- inhibition of IFNγ signaling [4]: shown to inhibit
- inhibition of IFNγ secretion [5]: effectively inhibit
- plasma concentrations with low-flow nasal oxygen therapy compared to healthy subjects without supplemental oxygen therapy (human, in vivo): similar
- plasma exposure (phase 2): low
